Experimental data from publication PMC9081605, “A High-Throughput Toxicity Screen of 42 Per- and Polyfluoroalkyl Substances (PFAS) and Functional Assessment of Migration and Gene Expression in Human Placental Trophoblast Cells” (Frontiers in Toxicology, 2022).

How the values were obtained:
Format in all cases: cell-based, human
JEG-3 cells [1] = assay: Mitochondrial membrane potential, JC-10 assay (HTTS); conditions: for EC50: JEG-3 cells
Source text: (§1) JEG-3 human choriocarcinoma trophoblastic cells (American Type Culture Collection, VA, United States) were maintained in sterile-filtered Minimum Essential Media (MEM) supplemented with L-glutamine and phenol red (Thermo Fisher Scientific, MA, United States), 10% (v/v) heat-inactivated BenchMark Fetal Bovine Serum (Gemini Bio, CA, United States), 1% (v/v) sodium pyruvate (Thermo Fisher Scientific, MA, United States), and 1% (v/v) penicillin streptomycin (Sigma Aldrich, MO, United States). Cells were maintained in an incubator at 37°C with 5% CO2. JEG-3 cells were cultured in 10 cm tissue culture plates and cell passage numbers were recorded.
(§2) A total of 42 perfluoroalkyl substances (PFAS) were evaluated (Supplementary Table S1 contains source and purity). PFAS stock solutions were maintained in 100% methanol as previous work has shown certain PFAS degrade when stored in dimethyl sulfoxide (DMSO; [Gaballah et al., 2020]). […] The vehicle control group consisted of 97.5% media + 2.5% methanol to match the concentration of methanol in the media at the highest PFAS concentration tested (500 µM). Menadione (50–500 µM) was used as a positive control for cytotoxicity assessment. PFAS were de-identified and assigned random numbers to eliminate bias. Chemical exposure plate maps were designed so that all experimental conditions were tested in at least technical duplicates per plate. The outer edges of each plate received media alone and were excluded from all analyses to avoid edge effects. Each plate map included 14 technical replicates of the vehicle control group and 14 technical replicates of media only. Biological replicates were defined as separate 384 well plates tested on separate days using different cell passages. The experimental workflow is depicted in Supplementary Figure S1.
(§3) JEG-3 cells were counted using a Z2 Coulter Particle Counter (Beckman Coulter, CA, United States) and seeded at a density of 2,500 cells per well in black-walled, clear bottom 384 well plates (Corning, #3764) and allowed to adhere overnight. Approximately 24 h later, 384 well plates were imaged using an IncuCyte Zoom live cell imager (Essen BioScience Inc., MI, United States) to obtain baseline cellular confluence measurements prior to chemical dosing (0 h). Media was removed from wells and replaced with fresh media containing chemical treatments (exposure media) using a Viaflo liquid handling device (Integra Biosciences, NH, United States). Within 30 min of exposure media application, plates were again imaged for cellular confluence using the IncuCyte Zoom. Plates were incubated with exposure media for 24 h and then imaged again using the IncuCyte Zoom (24 h).
The JC-10 assay (Enzo Life Sciences, NY, United States) was used to evaluate mitochondrial membrane potential, the main bioenergetic parameter that regulates respiratory rate, ATP synthesis and reactive oxygen species generation. In cells with polarized mitochondrial membranes, the JC-10 dye localizes to the mitochondrial matrix and forms red fluorescent aggregates (540/590 nm). In cells with depolarized mitochondrial membranes, the JC-10 dye localizes in the cytoplasm and converts to a green fluorescent monomer (490/525 nm). Mitochondrial membrane potential was calculated as the ratio of the green and red fluorescence intensities within a well.
At the end of the 24 h exposure period, exposure media was removed from the plate. The plate wells were then washed with 1x phosphate buffered saline (1x PBS). After washing, the JC-10 reagent was suspended in fresh 1x PBS and 20 µl was added to each well at a final concentration of 20 μM (Enzo Life Sciences, NY, United States). The plate was incubated for 1 h at 37°C, and the fluorescence intensities at excitation/emission wavelengths of 490/525 nm and 540/590 nm were measured using a CLARIOstar (BMG Labtech, Offenburg, Germany) plate reader, respectively.
HTTS data were analyzed using a custom data analysis script in R v 1.2.5019 ([R Core Team, 2019]). […]

JEG-3 cells [2] = assay: CellTiter-Glo luminescent cell viability assay (HTTS); conditions: for EC50: four-parameter fit, estimates meeting inclusion criteria; for Viability ↑, lowest concentration at which the mean response value exceeded the mean control value ± 2*SD (rough binning): increase; for cell viability relative to vehicle control (rough binning): after 24 h, in at least one concentration
Source text: as §1, §2, §3
In the same plate evaluated for mitochondrial membrane potential, cell viability measures were duplexed using the CellTiter-Glo (CTG) Luminescent Cell Viability Assay (Promega, WI, United States). CTG reagent was added to each well at a volume of 20 µl. The plate was left at room temperature to incubate for 5 min and then 20 µl from each well was transferred to a low-volume, round-bottom, white 384 well plate (Corning, NY, United States). The CTG reagent lyses cellular and mitochondrial membranes and binds to adenosine triphosphate (ATP) released by cells, which produces a luminescence signal. The intensity of the luminescence was considered a proxy measure for the number of live cells in a well. The luminescence intensities were measured using the CLARIOstar plate reader.
HTTS data were analyzed using a custom data analysis script in R v 1.2.5019 ([R Core Team, 2019]). Briefly, raw data points corresponding to the confluence measurements at 0 and 24 h, the fluorescence intensities corresponding to MMP, and the relative luminescence units (RLU) corresponding to cell viability were imported directly from Microsoft Excel into the R programming environment, RStudio. Separate plates run on separate days using different JEG-3 passages were considered as biologic replicates. […]

JEG-3 cells [3] = assay: Proliferation, change in confluence 0-24 h (IncuCyte Zoom, HTTS); conditions: for Prolif ↓, lowest concentration at which the mean response value exceeded the mean control value ± 2*SD (rough binning) / Prolif ↑, lowest concentration at which the mean response value exceeded the mean control value ± 2*SD (rough binning): 24 h; for Prolif ↓, lowest concentration at which the mean response value exceeded the mean control value ± 2*SD (rough binning): decrease; for cellular proliferation relative to vehicle control (rough binning): after 24 h, in at least one concentration; for Prolif ↑, lowest concentration at which the mean response value exceeded the mean control value ± 2*SD (rough binning): increase
Source text: as §1, §2, §3
Plate well bottom images were evaluated using automated cell masking. The automated cell masking program was developed using IncuCyte Zoom base software. Cell masking parameters were defined using a training set of JEG-3 cell images obtained prior to conducting the experiments and following IncuCyte Zoom software recommendations. Briefly, the training images were obtained from cell culture plates with varying levels of JEG-3 cellular confluence (ranging from ∼15% confluent to ∼95% confluent). Parameters for the automated cell masking were first manually set by an experimenter for 3-6 images of low (∼15–30%), medium (∼30–70%), and high confluence (∼70% or greater). The training images were then evaluated by the automated masking program and manually checked to ensure the parameters were sufficiently strict to ignore background (e.g., blank space on the plate well bottom) but adequately sensitive to detect cell borders. The masking program was then implemented on the experimental plates to obtain a baseline cellular confluence measurement at 0 h and a second confluence measurement at 24 h. […]

[4] = 24 h exposure, four-parameter fit, estimates meeting inclusion criteria, read-out: MMP EC50 ± SD
[5] = JEG-3 cells, 24 h exposure, read-out: Viability EC50 ± SD
[6] = JEG-3 cells, 24 h exposure, four-parameter fit, estimates meeting inclusion criteria, read-out: Proliferation EC50 ± SD

Row | Compound | EC50 (JEG-3 cells [2]; [5]) [µM] | cell viability relative to vehicle control (rough binning) (JEG-3 cells [2]) | EC50 (JEG-3 cells [3]; [6]) [µM] | cellular proliferation relative to vehicle control (rough binning) (JEG-3 cells [3]) | Prolif ↑, lowest concentration at which the mean response value exceeded the mean control value ± 2*SD (rough binning) (JEG-3 cells [3]; JEG-3 cells) [µM] | further results
1 | 6:2 Fluorotelomer alcohol | 415 ± 70.6 |  |  |  |  | EC50 (JEG-3 cells [1]; 24 h, read-out: MMP EC50 ± SE): 95.1 ± 15.3 µM; EC50 (JEG-3 cells [1]; [4]): 332 ± 44.1 µM
2 | Cc1ccc(S(=O)(=O)OCC(F)(F)C(F)(F)C(F)(F)C(F)(F)F)cc1 [1H,1H-Nonafluoropentyl p-toluenesulfonate] |  | increased cell viability | 306 ± 47.9 | reduced cellular proliferation |  | EC50 (JEG-3 cells [1]; [4]): 159 ± 17.7 µM; Viability ↑, lowest concentration at which the mean response value exceeded the mean control value ± 2*SD (rough binning) (JEG-3 cells [2]; JEG-3 cells, 24 h): 50 µM; Prolif ↓, lowest concentration at which the mean response value exceeded the mean control value ± 2*SD (rough binning) (JEG-3 cells [3]; JEG-3 cells): 400 µM
3 | O=C([O-])C(F)(F)OC(F)(F)F.[Na+] [2,2-Difluoro-2-(trifluoromethoxy)acetate sodium salt] |  |  |  | increased cellular proliferation | 50 | 
4 | CCN(CC(=O)O)S(=O)(=O)C(F)(F)C(F)(F)C(F)(F)C(F)(F)C(F)(F)C(F)(F)C(F)(F)C(F)(F)F [2-(N-Ethylperfluorooctanesulfonamido)acetic acid] |  | reduced cell viability |  |  | 50 | minimal effective concentration (JEG-3 cells [1]; Homo sapiens, JEG-3, 24 h, read-out: MMP ↓, lowest concentration at which the mean response value exceeded the mean control value ± 2*SD (rough binning)): 150 µM; MMP relative to vehicle control (rough binning) (JEG-3 cells [1]; after 24 h, in at least one concentration): reduced MMP; EC50 (JEG-3 cells [2]; Homo sapiens, JEG-3, 24 h, read-out: Viability EC50 ± SD, JEG-3 cells, 24 h exposure): 203 ± 44.7 µM; Viability ↓, lowest concentration at which the mean response value exceeded the mean control value ± 2*SD (rough binning) (JEG-3 cells [2]; JEG-3 cells, 24 h, decrease): 250 µM; minimal effective concentration (JEG-3 cells [3]; Homo sapiens, JEG-3, 24 h, read-out: Prolif ↓, lowest concentration at which the mean response value exceeded the mean control value ± 2*SD (rough binning)): 250 µM; EC50 (JEG-3 cells [3]; Homo sapiens, JEG-3, 24 h, read-out: Proliferation EC50 ± SD, JEG-3 cells, 24 h exposure, four-parameter fit, estimates meeting inclusion criteria): 204 ± 17.7 µM; EC50 (JEG-3 cells [3]; Homo sapiens, JEG-3, 24 h, read-out: proliferation EC50 ± SE, JEG-3 cells, 24 h): 204 ± 18 µM
5 | O=C(O)C(F)(F)C(F)(F)C(F)(F)C(F)F [5H-Octafluoropentanoic acid] | 354 ± 28.6 |  | 334 ± 56.5 |  |  | 
6 | O=S(=O)(O)CCC(F)(F)C(F)(F)C(F)(F)C(F)(F)C(F)(F)C(F)(F)F [6:2 Fluorotelomer sulfonic acid] |  |  |  | increased cellular proliferation | 50 | EC50 (JEG-3 cells [1]; raw model output including fits that did not meet inclusion criteria, read-out: MMP EC50 ± SD (raw values)): 70608 ± 10 µM
7 | O=C(O)C(F)(F)C(F)(F)C(F)(F)C(F)(F)C(F)(F)C(F)F [7H-Perfluoroheptanoic acid] | 223 ± 60.2 | increased cell viability | 294 ± 48.2 | reduced cellular proliferation |  | Viability ↑, lowest concentration at which the mean response value exceeded the mean control value ± 2*SD (rough binning) (JEG-3 cells [2]; JEG-3 cells, 24 h): 50 µM; Prolif ↓, lowest concentration at which the mean response value exceeded the mean control value ± 2*SD (rough binning) (JEG-3 cells [3]; JEG-3 cells): 400 µM
